Assay results reported in US8541411B2, “Benzimidazole derivatives as PI3 kinase inhibitors” (GlaxoSmithKline LLC, priority 2010, dated 2013).

What was measured:
[1] = test system: C32; test: Anchorage Independent Soft Agar Tumor Growth Assay, C32; assay type: cell-based; details: percent of DMSO-treated control at Ymin plateau
Description: (§1) Twenty-two Phosphatase and Tensin Homolog (PTEN) wild-type or PTEN deficient tumor cell lines were cultured generally according to instructions supplied by cell culture supplier American Type Culture Collection, Manassas, Va., with 10% fetal bovine serum at 5% CO2 and 37° C. Cells were seeded into either a T-75 or a T-175 flask 3-4 days prior to 96-well assay plating such that the flasks were approximately 70-80% confluent of the time of harvest. Cells were harvested using 0.25% trypsin-EDTA (Invitrogen #25200056). Trypan Blue exclusion staining was used to determine cell number. Viable cells were plated in clear, flat bottom 96-well plates (BD #353075) under anchorage independent conditions at 2,000-10,000 cells per well depending on the cell line. To generate anchorage independent growth conditions, a 5% agar stock solution in water was made and autoclaved to melt and sterilize. […] The next day one plate of cells was processed at the time of compound addition to quantify the starting number of cells (T=0 or T0). […] Following the 6-day incubation, 20 μl of Alamar Blue (Invitrogen #DAL1100) was added to the cells, incubated at 5% CO2 and 37° C. for 6 hours and the plates read on a Spectramax (Gemini EM) at 530 nm (excitation) and 590 nm (emission) with the auto cut-off disabled. […]

[2] = test system: CHL-1; test: Anchorage Independent Soft Agar Tumor Growth Assay, CHL-1; assay type: cell-based; details: percent of DMSO-treated control at Ymin plateau
Description: as §1

[3] = test system: UM-UC-3; test: Anchorage Independent Soft Agar Tumor Growth Assay, UM-UC-3; assay type: cell-based; details: percent of DMSO-treated control at Ymin plateau
Description: as §1

[4] = test system: BT549; test: Anchorage Independent Soft Agar Tumor Growth Assay, BT549; assay type: cell-based; details: percent of DMSO-treated control at Ymin plateau
Description: Cells were seeded into either a T-75 or a T-175 flask 3-4 days prior to 96-well assay plating such that the flasks were approximately 70-80% confluent of the time of harvest. Cells were harvested using 0.25% trypsin-EDTA (Invitrogen #25200056). Trypan Blue exclusion staining was used to determine cell number. Viable cells were plated in clear, flat bottom 96-well plates (BD #353075) under anchorage independent conditions at 2,000-10,000 cells per well depending on the cell line. To generate anchorage independent growth conditions, a 5% agar stock solution in water was made and autoclaved to melt and sterilize. From the 5% agar solution, a 0.6% agar/media+10% fetal bovine serum (FBS) solution was made to generate a bottom agar layer in the plates to prevent cell attachment. Seventy five microliters per well of the 0.6% agar-media solution was added to the plates. […] The next day one plate of cells was processed at the time of compound addition to quantify the starting number of cells (T=0 or T0). […] Following the 6-day incubation, 20 μl of Alamar Blue (Invitrogen #DAL1100) was added to the cells, incubated at 5% CO2 and 37° C. for 6 hours and the plates read on a Spectramax (Gemini EM) at 530 nm (excitation) and 590 nm (emission) with the auto cut-off disabled. […]

[5] = test system: UACC-62; test: Anchorage Independent Soft Agar Tumor Growth Assay, UACC-62; assay type: cell-based; details: percent of DMSO-treated control at Ymin plateau
Description: as §1

[6] = test system: PC-3; test: Anchorage Independent Soft Agar Tumor Growth Assay, PC-3; assay type: cell-based, human; details: percent of DMSO-treated control at Ymin plateau
Description: as §1

[7] = test system: MDA-MB-468; test: Anchorage Independent Soft Agar Tumor Growth Assay, MDA-MB-468; assay type: cell-based; details: percent of DMSO-treated control at Ymin plateau
Description: as §1

[8] = test system: WM-115; test: Anchorage Independent Soft Agar Tumor Growth Assay, WM-115; assay type: cell-based; details: percent of DMSO-treated control at Ymin plateau
Description: as §1

[9] = test system: SKOV-3; test: Anchorage Independent Soft Agar Tumor Growth Assay, SKOV-3; assay type: cell-based; details: percent of DMSO-treated control at Ymin plateau
Description: as §1

[10] = test system: SW1088; test: Anchorage Independent Soft Agar Tumor Growth Assay, SW1088; assay type: cell-based; details: percent of DMSO-treated control at Ymin plateau
Description: as §1

[11] = test system: HCC19377; test: Anchorage Independent Soft Agar Tumor Growth Assay, HCC19377; assay type: cell-based; details: percent of DMSO-treated control at Ymin plateau
Description: as §1

[12] = test system: LOXIMVI; test: Anchorage Independent Soft Agar Tumor Growth Assay, LOXIMVI; assay type: cell-based; details: percent of DMSO-treated control at Ymin plateau
Description: as §1

[13] = test system: SW1783; test: Anchorage Independent Soft Agar Tumor Growth Assay, SW1783; assay type: cell-based; details: percent of DMSO-treated control at Ymin plateau
Description: as §1

[14] = test system: U251; test: Anchorage Independent Soft Agar Tumor Growth Assay, U251; assay type: cell-based; details: percent of DMSO-treated control at Ymin plateau
Description: as §1

[15] = test system: BT474; test: Anchorage Independent Soft Agar Tumor Growth Assay, BT474; assay type: cell-based; details: percent of DMSO-treated control at Ymin plateau
Description: as §1

[16] = test system: pAKT (pAKT/tAKT); test: Pharmacodynamic effects, pAKT in PC-3 xenograft tumors; assay type: in vivo, mouse; details: mice given 3 mg/kg or 10 mg/kg, 1-24 hours
Description: Female nude mice (Charles River Laboratories, Wilmington, Del.; strain CD-1-Foxn1, 6 weeks of age) were injected subcutaneously with 2 million PC-3 (human prostate carcinoma) cells mixed 1:1 with Matrigel in the flank. Tumors were allowed to grow for approximately 5 weeks. […] The tumor was excised. Half of each tumor was immediately processed by Medicon (BD Catalog #340592) in 1 mL Meso-Scale Discovery (MSD) lysis buffer with protease inhibitors (Roche complete protease cocktail, cat#04 693 116 001) and phosphatase inhibitors (Sigma, cat #P2850 and P-5726) for 30-60 seconds and transferred to 1.5 mL Eppendorf tubes. Tubes remained on wet ice until they were centrifuged for 10 minutes at 4° C. at maximum speed in a tabletop refrigerated centrifuge. Tumor lysates were serially diluted in 96-well polypropylene plates on wet ice. Lysates (150 μL) were loaded in row 1; rows 2-12 were loaded with 75 μL of complete Meso Scale Discovery (MSD) lysis buffer (supplied in MSD kit; #[…]-3). Samples were serially diluted 2-fold across the plate by sequential transfer of 75 μL through well 11; row 12 contained lysis buffer only. […] Plates were washed as described above, before the addition of 150 μL of MSD read buffer and read immediately on a 6000 MSD plate reader. […] P/T AKT was calculated as shown: (phospho AKT(Ser473) signal)/[(phospho AKT(Ser473) signal)+(total AKT signal)]. […]

[17] = test system: HCT-116; test: Anchorage Independent Soft Agar Tumor Growth Assay, HCT-116; assay type: cell-based; details: percent of DMSO-treated control at Ymin plateau
Description: as §1

[18] = test system: HCC1395; test: Anchorage Independent Soft Agar Tumor Growth Assay, HCC1395; assay type: cell-based; details: percent of DMSO-treated control at Ymin plateau
Description: as §1

[19] = test system: HCC1954; test: Anchorage Independent Soft Agar Tumor Growth Assay, HCC1954; assay type: cell-based; details: percent of DMSO-treated control at Ymin plateau
Description: as §1

[20] = test system: HCC70; test: Anchorage Independent Soft Agar Tumor Growth Assay, HCC70; assay type: cell-based; details: percent of DMSO-treated control at Ymin plateau
Description: as §1

[21] = test system: Colo205; test: Anchorage Independent Soft Agar Tumor Growth Assay, Colo205; assay type: cell-based; details: percent of DMSO-treated control at Ymin plateau
Description: as §1

[22] = test system: U-87MG; test: Anchorage Independent Soft Agar Tumor Growth Assay, U-87MG; assay type: cell-based; details: percent of DMSO-treated control at Ymin plateau
Description: as §1

[23] = test system: H4; test: Anchorage Independent Soft Agar Tumor Growth Assay, H4; assay type: cell-based; details: percent of DMSO-treated control at Ymin plateau
Description: as §1

## Cc1c(Cn2c(C)nc3c(C(=O)O)cc(N4CCOCC4)cc32)cccc1C(F)(F)F [Example 31, 2-methyl-1-{[2-methyl-3-(trifluoromethyl)phenyl]methyl}-6-(4-morpholinyl)-1H-benzimidazole-4-carboxylic acid]
[1]
  Ymin ± StDev: 20 ± 14
[2]
  Ymin ± StDev: 82 ± 2
[3]
  Ymin ± StDev: 83 ± 29
[4]
  Ymin ± StDev: 52 ± 7
[5]
  Ymin ± StDev: 76 ± 18
[6]
  Ymin ± StDev: 82 ± 13
[7]
  Ymin ± StDev: 44 ± 6
[8]
  Ymin ± StDev: 54 ± 14
[9]
  Ymin ± StDev: >80
[10]
  Ymin ± StDev: 36 ± 8
[11]
  Ymin ± StDev: 67 ± 8
[12]
  Ymin ± StDev: >90
[13]
  Ymin ± StDev: 69 ± 4
[14]
  Ymin ± StDev: 80 ± 17
[15]
  Ymin ± StDev: 75 ± 3
[16]
  inhibition of the pharmacodynamic marker pAKT (pAKT/tAKT): dose dependent inhibition
[17]
  Ymin ± StDev: >80
[18]
  Ymin ± StDev: 26 ± 9
[19]
  Ymin ± StDev: >80
[20]
  Ymin ± StDev: 27 ± 8
[21]
  Ymin ± StDev: >80
[22]
  Ymin ± StDev: 34 ± 18
[23]
  Ymin ± StDev: 55 ± 18
